# Measurements published in patent US8119602B2, “Administration of HCV protease inhibitors in combination with food to improve bioavailability” (Schering Corporation, priority 2005, dated 2012).
# Where two headings read alike, the source gives them in different places.
# Experiments:
# [1] = Single dose, randomized fed vs. fasted study of the effect of food on bioavailability (pharmacokinetics); format: in vivo, healthy subjects; conditions: for Relative bioavailability, AUC (tf) Ratio Estimate / Relative bioavailability, AUC(l) Ratio Estimate / Relative bioavailability, Cmax Ratio Estimate: fed vs fasted; for increase of Cmax relative to fasted state / increase of mean AUCs relative to fasted state: based on ratio estimates; for half-life: read-out: t½ (mean) (converted)
# Description: A single dose, randomized, two-treatment (fed vs. fasted) study was conducted to assess the effect of food on bioavailability of a compound of the present invention (SCH 503034 or Compound Ia). A single oral dose of 600 mg. of compound of Formula Ia was administered to two groups of healthy subjects. Group A received the dose after an overnight 10-hour fast; Group B received the dose about twenty minutes after consuming a high fat breakfast of 850 calories having 53.8 g fat (57% of calories from fat) or low fat breakfast of 451 calories. Blood samples were collected immediately prior to dosing (time zero) and at times 0.5, 1, 1.5, 2, 2.5, 3, 4, 6, 8, 12, 24, 36, 48, and 72 hours post dose. Results of measurement of mean maximum concentration (Cmax) of compound of Formula Ia in serum in ng/ml are shown in Table 1 and FIG. 1 (graph of mean plasma concentration of the compound versus Time). Calculations of AUC(tf) (area under the curve at time final), AUC(I) (area under the curve extrapolated to infinity), t½ (time at which one-half of the compound has disappeared from the blood), Tmax (time at which maximum serum concentration is achieved), CL/F (clearance divided by bioavailability), and Vd/F (volume of distribution divided by bioavailability) are made according to standard formulas known to one skilled in the art of drug metabolism and pharmacokintics.
# [2] = Serum levels after two weeks of 400 mg bid or tid dosing; format: in vivo, healthy subjects; conditions: 400 mg tid for two weeks; day 14
# Description: Healthy subjects were dosed with two regimens of 400 mg. of a compound of Formula 1a, twice per day (bid) or three times per day (tid) for a period of two weeks. Blood samples were taken on day 14 in the morning at time zero (pre-dose) and at 12 hours post-dose (for the bid regimen) or 8 hours post-dose (for the tid regimen). As shown in the box plots, with tid dosing a metabolism effect is observed. Serum levels of the drug are higher at time zero, 8 hours after the previous evening dose, as compared to serum levels of the drug when measured 8 hours following the morning dose.
# [3] = human, serum, po, 600 mg, single oral dose 600 mg, fasted, balanced data
# [4] = human, serum, po, 600 mg, single oral dose 600 mg, fed (high fat diet), balanced data
# [5] = human, serum, po, 600 mg, single oral dose 600 mg, fed (non fat diet), balanced data
smiles,measurement,setting,value
CC(C)(C)NC(=O)N[C@H](C(=O)N1C[C@H]2[C@@H]([C@H]1C(=O)NC(CC1CCC1)C(=O)C(N)=O)C2(C)C)C(C)(C)C (mixture of isomers) [SCH 503034],"Relative bioavailability, AUC (tf) Ratio Estimate","[1]; compare B/A, balanced data",317%
same,"Relative bioavailability, AUC(l) Ratio Estimate","[1]; compare B/A, balanced data",276%
same,"Relative bioavailability, Cmax Ratio Estimate","[1]; compare B/A, balanced data",223%
same,"Relative bioavailability, AUC (tf) Ratio Estimate","[1]; compare C/A, balanced data",182%
same,"Relative bioavailability, AUC(l) Ratio Estimate","[1]; compare C/A, balanced data",167%
same,"Relative bioavailability, Cmax Ratio Estimate","[1]; compare C/A, balanced data",129%
same,absorption lag time,"[1]; fed state with high fat diet, in 8 of the 12 subjects who completed all three periods",0.5 h
same,absorption lag time,"[1]; fed state with non fat diet, 7 subjects",0.5 h
same,increase of Cmax relative to fasted state,[1]; high fat diet,123%
same,increase of mean AUCs relative to fasted state,[1]; high fat diet,over 200%
same,Cmax,[1]; [3],502 ng/mL
same,Vd/F,[1]; [3],4580 L
same,AUC,"[1]; human, serum, po, 600 mg, single oral dose 600 mg, fasted, balanced data, read-out: AUC(l) (mean)",1630 ng·h/mL
same,AUC,"[1]; human, serum, po, 600 mg, single oral dose 600 mg, fasted, balanced data, read-out: AUC(tf) (mean)",1560 ng·h/mL
same,Tmax,"[1]; human, serum, po, 600 mg, single oral dose 600 mg, fasted, balanced data, read-out: Tmax, median (range)",1.5 h
same,half-life,[1]; [3],7.61 h
same,Cmax,[1]; [4],1150 ng/mL
same,Vd/F,[1]; [4],418 L
same,AUC,"[1]; human, serum, po, 600 mg, single oral dose 600 mg, fed (high fat diet), balanced data, read-out: AUC(l) (mean)",4440 ng·h/mL
same,AUC,"[1]; human, serum, po, 600 mg, single oral dose 600 mg, fed (high fat diet), balanced data, read-out: AUC(tf) (mean)",5090 ng·h/mL
same,half-life,[1]; [4],2.01 h
same,Cmax,[1]; [5],639 ng/mL
same,Vd/F,[1]; [5],1140 L
same,AUC,"[1]; human, serum, po, 600 mg, single oral dose 600 mg, fed (non fat diet), balanced data, read-out: AUC(l) (mean)",2750 ng·h/mL
same,AUC,"[1]; human, serum, po, 600 mg, single oral dose 600 mg, fed (non fat diet), balanced data, read-out: AUC(tf) (mean)",3040 ng·h/mL
same,half-life,[1]; [5],3.2 h
same,increase of Cmax relative to fasted state,[1]; non fat diet,29%
same,increase of mean AUCs relative to fasted state,[1]; non fat diet,about 100%
same,CL/F (mean),"[1]; single oral dose 600 mg, fasted, balanced data",407 L/h
same,CL/F (mean),"[1]; single oral dose 600 mg, fed (high fat diet), balanced data",144.0 L/h
same,CL/F (mean),"[1]; single oral dose 600 mg, fed (non fat diet), balanced data",243 L/h
same,rate of absorption in the fed state (vs fasted),"[1]; single oral dose 600 mg, fed state",more slowly
"CC(C)(C)NC(=O)N[C@H](C(=O)N1C[C@H]2[C@@H]([C@H]1C(=O)NC(CC1CCC1)C(=O)C(N)=O)C2(C)C)C(C)(C)C (stereo partly drawn) [compound of Formula 1a, (1R,5S)-N-[3-Amino-1-(Cyclobutylmethyl)-2,3-Dioxopropyl]-3-[2(S)-[[[(1,1-Dimethylethyl)Amino]Carbonyl]Amino]-3,3-Dimethyl-1-Oxobutyl]-6,6-Dimethyl-3-Azabicyclo[3.1.0]Hexan-2(S)-Carboxamide]",serum levels at time zero (8 hours after the previous evening dose) compared to 8 hours following the morning dose,[2],higher
